#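 Protocol summary: plate cells (96-well), add compound at 5 concentrations, incubate 48 h, interpolate endpoints linearly. TGI marks complete inhibition of growth.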
# Experiments:
# Assay in all cases: inhibition of tumour cell growth, NCI panel, 48 h
# [1] = system: CAKI-1 renal
# [2] = system: CCRF-CEM leukemia
# [3] = system: EKVX NSCLC
# [4] = system: HCT-15 colon
# [5] = system: HT29 colon
# [6] = system: KM12 colon
# [7] = system: M14 melanoma
# [8] = system: MOLT-4 leukemia
# [9] = system: NCI-H460 lung
# [10] = system: NCI-H522 lung
# [11] = system: OVCAR-8 ovarian
# [12] = system: RPMI-8226 leukemia
# [13] = system: RXF 393 renal
# [14] = system: SF-268 CNS
# [15] = system: SF-295 CNS
# [16] = system: SK-MEL-28 melanoma
# [17] = system: SR leukemia
# [18] = system: TK-10 renal
# [19] = system: K-562 leukemia
# [20] = system: NCI-H226 lung
Compound,TGI [1] [µM],TGI [2] [µM],TGI [3] [µM],TGI [4] [µM],TGI [5] [µM],TGI [6] [µM],TGI [7] [µM],TGI [8] [µM],TGI [9] [µM],TGI [10] [µM],TGI [11] [µM],TGI [12] [µM],TGI [13] [µM],TGI [14] [µM],TGI [15] [µM],TGI [16] [µM],TGI [17] [µM],TGI [18] [µM],TGI [19] [µM],TGI [20] [µM]
COC1/C=C/C(C)C(O)CC(O)/C=C/C(C)C(C(C)C(OC)C(C)CCC(=O)C(C)C(C/C=C/N(C)C=O)OC)OC(=O)/C=C/C=C(\C)CC(OC)CC2=CC(=O)O[C@@H](C(C)C(OC)C1)[C@H]2O (some centres undefined),0.0192,2.98,0.266,0.0893,0.741,1.15,< 0.005,28.2,0.162,0.093,0.475,0.124,0.0112,0.137,< 0.005,0.155,24.6,0.0551,,
COc1nc(Cl)nc(N[C@H](C)c2c3ccccc3cc3ccccc23)n1,25.9,29.6,29.6,27,31.3,26.9,,40.1,33.9,21.3,28.4,21.1,25.9,39.7,31,10.2,,14.8,97.8,31.6
CCOc1ccc2nc(NC(=O)C(=O)C(C(=O)c3ccccc3F)C3OC(=O)c4ccccc43)sc2c1 (centres undefined),75.3,40.1,45.3,38.2,,19,32.5,> 100,39.5,27.8,32.8,90,38.3,82,,46.5,55.6,90.7,> 100,27.5
COc1ccccc1NC(=O)C(=O)C(C(=O)c1ccccc1F)C1OC(=O)c2ccccc21 (centres undefined),86.7,67,> 100,69.2,62.5,64,> 100,> 100,74.7,35.7,47.2,69.6,68.4,> 100,> 100,> 100,60.7,> 100,> 100,43.8
